The target of one assay is T1, αA domain from CD11a (Homo sapiens, UniProt P20701).
T1 sequence (P20701 156-327 limits assumed): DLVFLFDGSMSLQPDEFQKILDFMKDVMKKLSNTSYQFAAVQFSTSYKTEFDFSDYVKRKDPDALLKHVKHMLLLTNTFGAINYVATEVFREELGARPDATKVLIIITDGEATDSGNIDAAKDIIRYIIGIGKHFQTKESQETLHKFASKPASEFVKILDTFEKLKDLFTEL
The note with it: binding at the strand-F/α7 interface; reference 84; cited from earlier work.

The target of the next assay is physiologic ligand. Briefly: ligand binding to membrane-bound integrin.

With `CC[C@H](C)C(=O)O[C@H]1C[C@@H](C)C=C2C=C[C@H](C)[C@H](CC[C@@H]3C[C@@H](O)CC(=O)O3)[C@H]21` [lovastatin], on αA domain from CD11a, the “effect of binding on integrin activation state” value is “locks this integrin in the inactive state”. “αVβ3 integrin mutant D^126D^127/A^126A^127, membrane-bound (from UniProt P06756 31-1048; P05106 27-788) (receptor)” showed a fold increase of binding with physiologic ligand of 1.5 to 2 fold.

(Values after patent publication US20060142548A1, “Methods of identifying and designing cell surface receptor inhibitors” (priority 2003, published 2006).)
